Calls of active or inactive are those of the source. The rule behind the calls is not given here.
Tests used:
[1] = system: HCT-116; assay: Antiproliferative activity against human HCT-116 cells expressing wildtype ATM incubated for 72 hrs by CCK8 assay; type: functional, cell-based; conditions: HCT-116, 72 h
[2] = system: LoVo; assay: Antiproliferative activity against ATM deficient human LoVo cells incubated for 72 hrs by CCK8 assay; type: functional, cell-based
[3] = target: Serine/threonine-protein kinase ATR (Homo sapiens, UniProt Q13535); assay: Inhibition of ATR (unknown origin)
[4] = system: NCM460; assay: Cytotoxicity against human NCM460 cells; type: toxicity, cell-based
[5] = target: T1, Protein cereblon/Serine/threonine-protein kinase ATR (Homo sapiens, UniProt Q13535+Q96SW2); assay: PROTAC activity at CRBN/ATR in human LoVo cells assessed as induction of ATR degradation at 2.5 uM by Western blot analysis; type: cell-based; conditions: time 6-72 hrs, TDE = time-dependent effect
[6] = target: Phosphatidylinositol 4,5-bisphosphate 3-kinase catalytic subunit alpha isoform (Homo sapiens) (UniProt P42336); assay: Induction of PI3K-alpha degradation in human LoVo cells at 0.16 to 10 uM incubated for 72 hrs by Western blot analysis; type: cell-based; conditions: dose 0.16-10 µM
[7] = target: T1, Protein cereblon/Serine/threonine-protein kinase ATR; assay: PROTAC activity at CRBN/ATR in human LoVo cells assessed as induction of ATR degradation at 1 uM incubated for 24 hrs by global proteomic profiling analysis; type: cell-based
[8] = system: LoVo; assay: Induction of SIPA1L1 degradation in human LoVo cells at 1 uM incubated for 24 hrs by global proteomic profiling analysis; type: cell-based
[9] = system: LoVo; assay: Induction of LBP degradation in human LoVo cells at 1 uM incubated for 24 hrs by global proteomic profiling analysis; type: cell-based
[10] = target: T1, Protein cereblon/Serine/threonine-protein kinase ATR; assay: PROTAC activity at CRBN/ATR in human LoVo cells assessed as induction of ATR degradation at 2.5 uM preincubated with pomalidomide for 4 hrs followed by compound addition and measured after 48 hrs by Western blot analysis; type: cell-based
[11] = target: T1, Protein cereblon/Serine/threonine-protein kinase ATR; assay: PROTAC activity at CRBN/ATR in human LoVo cells assessed as induction of ATR degradation at 2.5 uM preincubated with MLN4924 for 4 hrs followed by compound addition and measured after 48 hrs by Western blot analysis; type: cell-based
[12] = target: T1, Protein cereblon/Serine/threonine-protein kinase ATR; assay: PROTAC activity at CRBN/ATR in human LoVo cells assessed as increase in ATR-CRBN protein-protein interaction by co-immunoprecipitation analysis; type: cell-based
[13] = target: T1, Protein cereblon/Serine/threonine-protein kinase ATR; assay: PROTAC activity at CRBN/ATR in human LoVo cells assessed as induction of ATR degradation at 2.5 uM preincubated for 36 hrs followed by compound washout and measured after 12 to 48 hrs by Western blot analysis; type: cell-based
[14] = system: LoVo; assay: Downregulation of total ATR protein level in human LoVo cells incubated for 72 hrs by Western blot analysis; type: functional, cell-based; conditions: dose 0.16-10 µM
[15] = target: T2, Serine/threonine-protein kinase Chk1 (Homo sapiens) (UniProt O14757); assay: Inhibition of CHK1 phosphorylation at Ser345 residue in human LoVo cells incubated for 72 hrs by Western blot analysis; type: cell-based; conditions: dose 0.16-10 µM
T2 sequence (whole entry): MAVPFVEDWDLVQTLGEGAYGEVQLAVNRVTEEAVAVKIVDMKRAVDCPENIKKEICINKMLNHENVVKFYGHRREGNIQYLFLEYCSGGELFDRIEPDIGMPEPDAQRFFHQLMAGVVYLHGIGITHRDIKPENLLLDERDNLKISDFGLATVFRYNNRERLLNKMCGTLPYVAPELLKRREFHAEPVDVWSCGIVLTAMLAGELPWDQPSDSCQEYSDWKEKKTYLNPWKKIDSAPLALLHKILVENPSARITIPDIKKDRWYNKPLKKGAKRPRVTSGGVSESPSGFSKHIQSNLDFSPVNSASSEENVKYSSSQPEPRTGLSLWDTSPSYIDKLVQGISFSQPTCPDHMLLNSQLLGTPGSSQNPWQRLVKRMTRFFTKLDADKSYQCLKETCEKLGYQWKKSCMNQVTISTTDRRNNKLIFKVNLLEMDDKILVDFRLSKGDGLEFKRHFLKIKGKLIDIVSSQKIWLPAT

[16] = system: LoVo; assay: Induction of DNA damage in human LoVo cells assessed as increase in gammaH2AX expression at 0.5 to 1 uM incubated for 72 hrs by DAPI staining based immunofluorescence analysis; type: functional, cell-based; conditions: dose 0.5-1 µM
[17] = system: LoVo; assay: Induction of apoptosis in human LoVo cells assessed as apoptotic rate at 1 uM incubated for 48 hrs by Annexin V-FITC/PI staining based flow cytometric analysis (reference value: 5.32 %); type: functional
[18] = system: LoVo; assay: Cell cycle arrest in human LoVo cells assessed as accumulation of cells at G0/G1 phase at 1 uM incubated for 72 hrs by PI staining based flow cytometric analysis (reference value: 52.3 %); type: functional
[19] = Tmax in BALB/c nude mouse xenografted with human LoVo cells at 25 mg/kg, ip administered as single dose and measured after 12 hrs by LC-MS/MS analysis; type: ADME, organism-based; conditions: in vivo
[20] = Cmax in BALB/c nude mouse xenografted with human LoVo cells at 25 mg/kg, ip administered as single dose and measured after 12 hrs by LC-MS/MS analysis; type: ADME, organism-based; conditions: in vivo
[21] = AUC (0 to t) in BALB/c nude mouse xenografted with human LoVo cells at 25 mg/kg, ip administered as single dose and measured after 12 hrs by LC-MS/MS analysis; type: ADME, organism-based; conditions: in vivo
[22] = MRT (0 to t) in BALB/c nude mouse xenografted with human LoVo cells at 25 mg/kg, ip administered as single dose and measured after 12 hrs by LC-MS/MS analysis; type: ADME, organism-based; conditions: in vivo
[23] = MRT (0 to infinity) in BALB/c nude mouse xenografted with human LoVo cells at 25 mg/kg, ip administered as single dose and measured after 12 hrs by LC-MS/MS analysis; type: ADME, organism-based; conditions: in vivo
[24] = Free drug concentration in tumor of BALB/c nude mouse xenografted with human LoVo cells at 25 mg/kg, ip administered as single dose and measured after 12 hrs by LC-MS/MS analysis; type: ADME, organism-based; conditions: in vivo
[25] = system: LoVo; assay: Antitumor activity against human LoVo cells xenografted in BALB/c nude mouse assessed as tumor growth inhibition at 25 mg/kg, ip administered […] for 15 days relative to control; type: functional; conditions: 360 h, time 15 day, read-out: TGI
[26] = system: LoVo; assay: Antitumor activity against human LoVo cells xenografted in BALB/c nude mouse assessed as induction of DNA damage by measuring increase in gammaH2AX protein level; type: functional, cell-based
[27] = Toxicity in BALB/c nude mouse xenografted with human LoVo cells assessed as effect on heart at 12.5 to 25 mg/kg, ip administered twice daily for 15 days by H and E staining based analysis; type: organism-based; conditions: in vivo, 360 h, dose 12.5-25 mg/kg, time 15 day
[28] = Toxicity in BALB/c nude mouse xenografted with human LoVo cells assessed as effect on liver at 12.5 to 25 mg/kg, ip administered twice daily for 15 days by H and E staining based analysis; type: organism-based; conditions: in vivo, 360 h, dose 12.5-25 mg/kg, time 15 day
[29] = Toxicity in BALB/c nude mouse xenografted with human LoVo cells assessed as effect on lung at 12.5 to 25 mg/kg, ip administered twice daily for 15 days by H and E staining based analysis; type: organism-based; conditions: in vivo, 360 h, dose 12.5-25 mg/kg, time 15 day

T1 sequence (Q13535 whole entry, looked up, canonical isoform): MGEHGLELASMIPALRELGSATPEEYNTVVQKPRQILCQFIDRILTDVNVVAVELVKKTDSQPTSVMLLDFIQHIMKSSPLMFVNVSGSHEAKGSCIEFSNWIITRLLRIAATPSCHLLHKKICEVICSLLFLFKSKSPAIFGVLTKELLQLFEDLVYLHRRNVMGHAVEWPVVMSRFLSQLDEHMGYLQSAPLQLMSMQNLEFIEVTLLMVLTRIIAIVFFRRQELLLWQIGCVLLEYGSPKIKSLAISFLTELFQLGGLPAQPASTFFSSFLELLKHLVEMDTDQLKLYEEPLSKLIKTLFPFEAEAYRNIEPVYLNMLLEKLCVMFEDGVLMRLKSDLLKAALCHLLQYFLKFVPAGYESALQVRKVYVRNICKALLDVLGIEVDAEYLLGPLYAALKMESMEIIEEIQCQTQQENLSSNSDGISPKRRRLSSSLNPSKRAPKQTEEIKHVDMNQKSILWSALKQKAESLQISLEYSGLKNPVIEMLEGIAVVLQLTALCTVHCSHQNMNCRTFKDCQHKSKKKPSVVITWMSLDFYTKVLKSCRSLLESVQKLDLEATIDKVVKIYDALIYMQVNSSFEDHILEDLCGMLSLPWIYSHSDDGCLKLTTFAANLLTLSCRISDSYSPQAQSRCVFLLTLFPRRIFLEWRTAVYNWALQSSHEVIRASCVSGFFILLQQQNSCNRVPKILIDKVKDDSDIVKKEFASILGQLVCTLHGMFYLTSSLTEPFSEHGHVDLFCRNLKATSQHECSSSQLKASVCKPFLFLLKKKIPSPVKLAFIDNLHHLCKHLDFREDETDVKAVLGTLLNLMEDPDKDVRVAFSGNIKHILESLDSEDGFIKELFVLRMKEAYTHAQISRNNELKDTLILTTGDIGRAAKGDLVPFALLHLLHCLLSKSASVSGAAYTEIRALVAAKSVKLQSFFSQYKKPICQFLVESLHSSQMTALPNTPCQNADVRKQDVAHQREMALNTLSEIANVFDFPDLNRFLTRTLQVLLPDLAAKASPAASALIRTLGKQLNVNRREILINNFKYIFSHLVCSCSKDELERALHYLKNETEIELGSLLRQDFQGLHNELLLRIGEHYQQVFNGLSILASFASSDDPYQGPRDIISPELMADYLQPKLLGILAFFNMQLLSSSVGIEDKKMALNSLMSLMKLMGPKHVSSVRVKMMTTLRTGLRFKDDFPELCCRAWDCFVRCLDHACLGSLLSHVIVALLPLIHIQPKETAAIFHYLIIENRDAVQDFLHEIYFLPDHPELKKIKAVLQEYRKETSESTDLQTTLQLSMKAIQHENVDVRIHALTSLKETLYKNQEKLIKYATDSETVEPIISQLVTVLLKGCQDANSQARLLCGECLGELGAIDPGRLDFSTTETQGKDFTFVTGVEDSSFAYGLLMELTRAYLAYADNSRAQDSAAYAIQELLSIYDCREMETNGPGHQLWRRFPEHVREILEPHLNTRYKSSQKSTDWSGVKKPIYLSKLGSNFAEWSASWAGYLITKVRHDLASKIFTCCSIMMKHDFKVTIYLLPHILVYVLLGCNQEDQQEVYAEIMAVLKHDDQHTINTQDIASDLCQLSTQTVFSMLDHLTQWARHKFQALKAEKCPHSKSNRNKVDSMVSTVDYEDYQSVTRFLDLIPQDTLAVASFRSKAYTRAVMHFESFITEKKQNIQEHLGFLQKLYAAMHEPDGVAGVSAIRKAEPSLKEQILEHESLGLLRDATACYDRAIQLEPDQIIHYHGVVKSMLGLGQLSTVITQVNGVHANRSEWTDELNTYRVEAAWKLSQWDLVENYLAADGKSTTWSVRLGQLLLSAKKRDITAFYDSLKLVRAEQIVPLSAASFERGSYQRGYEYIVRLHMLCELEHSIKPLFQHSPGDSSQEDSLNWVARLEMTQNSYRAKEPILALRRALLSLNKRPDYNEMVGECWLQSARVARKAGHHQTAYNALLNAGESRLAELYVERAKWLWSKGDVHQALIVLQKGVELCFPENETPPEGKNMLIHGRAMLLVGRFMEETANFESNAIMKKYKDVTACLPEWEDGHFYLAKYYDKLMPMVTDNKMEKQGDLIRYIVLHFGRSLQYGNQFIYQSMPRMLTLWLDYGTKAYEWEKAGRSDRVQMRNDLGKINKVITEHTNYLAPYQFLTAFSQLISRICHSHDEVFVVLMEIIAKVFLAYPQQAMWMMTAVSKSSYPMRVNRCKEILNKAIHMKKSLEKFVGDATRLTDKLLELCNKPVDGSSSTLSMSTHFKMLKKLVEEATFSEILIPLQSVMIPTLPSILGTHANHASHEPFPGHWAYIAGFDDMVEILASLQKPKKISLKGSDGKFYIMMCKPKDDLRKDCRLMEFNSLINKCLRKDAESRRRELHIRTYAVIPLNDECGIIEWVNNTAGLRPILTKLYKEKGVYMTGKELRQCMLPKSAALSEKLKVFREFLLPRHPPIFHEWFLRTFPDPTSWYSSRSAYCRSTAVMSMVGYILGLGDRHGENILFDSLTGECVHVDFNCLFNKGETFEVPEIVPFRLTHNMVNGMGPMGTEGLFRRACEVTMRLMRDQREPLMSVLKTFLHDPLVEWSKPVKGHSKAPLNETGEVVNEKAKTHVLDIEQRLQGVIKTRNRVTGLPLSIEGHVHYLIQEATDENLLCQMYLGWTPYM
T1 sequence (Q96SW2 whole entry, looked up, canonical isoform): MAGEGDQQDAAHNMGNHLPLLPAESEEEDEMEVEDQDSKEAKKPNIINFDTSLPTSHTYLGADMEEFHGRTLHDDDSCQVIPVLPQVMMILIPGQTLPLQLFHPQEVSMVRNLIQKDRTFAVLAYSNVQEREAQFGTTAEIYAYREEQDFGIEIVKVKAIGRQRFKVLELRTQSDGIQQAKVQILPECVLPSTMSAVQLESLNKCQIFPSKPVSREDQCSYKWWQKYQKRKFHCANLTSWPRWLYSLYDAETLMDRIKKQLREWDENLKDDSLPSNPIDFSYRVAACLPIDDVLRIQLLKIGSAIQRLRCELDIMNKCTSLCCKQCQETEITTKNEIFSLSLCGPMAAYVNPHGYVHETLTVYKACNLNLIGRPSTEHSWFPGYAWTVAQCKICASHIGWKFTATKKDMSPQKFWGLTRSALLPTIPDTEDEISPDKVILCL
Chain of Phosphatidylinositol 4,5-bisphosphate 3-kinase catalytic subunit alpha isoform (Homo sapiens) (P42336 whole entry, canonical isoform): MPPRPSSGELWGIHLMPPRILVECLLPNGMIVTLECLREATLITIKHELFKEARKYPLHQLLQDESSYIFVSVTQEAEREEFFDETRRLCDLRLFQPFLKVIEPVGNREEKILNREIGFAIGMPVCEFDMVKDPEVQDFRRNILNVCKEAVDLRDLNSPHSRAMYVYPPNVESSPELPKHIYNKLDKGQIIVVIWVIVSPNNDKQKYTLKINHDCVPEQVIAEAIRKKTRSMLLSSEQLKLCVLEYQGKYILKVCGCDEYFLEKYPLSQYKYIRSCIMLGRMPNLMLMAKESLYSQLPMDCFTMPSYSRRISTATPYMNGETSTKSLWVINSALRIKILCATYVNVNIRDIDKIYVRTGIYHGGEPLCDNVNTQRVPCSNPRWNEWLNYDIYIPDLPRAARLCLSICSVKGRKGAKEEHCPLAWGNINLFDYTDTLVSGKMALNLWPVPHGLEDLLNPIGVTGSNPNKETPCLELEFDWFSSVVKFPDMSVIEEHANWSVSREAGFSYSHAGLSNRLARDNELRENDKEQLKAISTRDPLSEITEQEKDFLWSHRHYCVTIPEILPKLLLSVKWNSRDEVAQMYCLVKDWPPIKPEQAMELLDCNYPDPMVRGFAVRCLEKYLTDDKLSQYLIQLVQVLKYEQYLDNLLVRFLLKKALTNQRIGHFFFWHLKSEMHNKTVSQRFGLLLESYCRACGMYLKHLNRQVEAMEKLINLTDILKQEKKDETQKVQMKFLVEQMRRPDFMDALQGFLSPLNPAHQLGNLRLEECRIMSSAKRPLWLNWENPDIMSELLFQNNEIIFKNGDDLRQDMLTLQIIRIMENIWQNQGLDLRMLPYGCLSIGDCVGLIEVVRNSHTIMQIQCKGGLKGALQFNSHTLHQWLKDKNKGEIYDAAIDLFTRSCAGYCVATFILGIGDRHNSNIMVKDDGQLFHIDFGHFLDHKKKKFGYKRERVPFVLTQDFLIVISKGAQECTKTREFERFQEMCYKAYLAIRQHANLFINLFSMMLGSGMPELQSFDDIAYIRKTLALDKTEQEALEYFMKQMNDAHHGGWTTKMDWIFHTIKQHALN
Chain of Serine/threonine-protein kinase ATR (Q13535 whole entry, looked up): as the sequence (Q13535 whole entry, looked up, canonical isoform) above

## C[C@@H]1COCCN1c1cc(C2([S@@](C)(=O)=NC(=O)CCc3cn(CCCCCCCC(=O)Nc4cccc5c4C(=O)N(C4CCC(=O)NC4=O)C5=O)nn3)CC2)nc(-c2ccnc3[nH]ccc23)n1 (some centres undefined)
[1]
  IC50: 5100 nM
[2]
  IC50: 470 nM
[3]
  inhibition: Active
[4]
  Activity: Non-Toxic
[5]
  Activity: Tde
[6]
  Activity: inactive
[7]
  Activity: Active
[8]
  Activity: Active
[9]
  Activity: Active
[10]
  Activity: inactive
[11]
  Activity: inactive
[12]
  Activity: Active
[13]
  Activity: Active
[14]
  Activity: Dose-Dependent Effect
[15]
  inhibition: Dose-Dependent Effect
[16]
  Activity: Active
[17]
  Activity: 45.62%
[18]
  Activity: 67.3%
[19]
  Tmax: 2 h
[20]
  Cmax: 1180 ng/mL
[21]
  AUC(0-t) at 12 h: 4550 ng·h/mL
[22]
  MRT last at 12 h: 4.21 h
[23]
  MRT inf: 4.65 h
[24]
  Drug uptake(free): ~ 6 uM
[25]
  inhibition in vivo at 25 mg/kg: 51.8%
[26]
  Activity: Active
[27]
  Activity: Non-Toxic
[28]
  Activity: Non-Toxic
[29]
  Activity: Non-Toxic

Reference: ChEMBL document CHEMBL5576037, “Discovery of the first ataxia telangiectasia and Rad3-related (ATR) degraders for cancer treatment” (Eur J Med Chem, 2024)
